In patent publication US6362166B1, “Antipicornaviral compounds and methods for their use and preparation” (Agouron Pharmaceuticals, Inc., priority 1996, dated 2002):
Like-named read-outs stand apart in the source and are kept apart here.

Experiments:
HRV-14 = experiment: Antirhinoviral HI-HeLa Cell Culture Assay (Cell Protection Assay, XTT dye reduction); assay type: cell-based, human rhinovirus (HRV) serotype-14
In short: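 Protection measured via XTT dye reduction (450/650 nm) two days after compound treatment of HI-HeLa cells, mock-infected or infected with cDNA-derived HRV-14 at m.o.i. 0.13. CC50 divided by EC50 gives the therapeutic index.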

[1] = system: Human Rhinovirus-serotype 10 (HRV-10); experiment: Normal Human Bronchial Epithelial Cell Assay (MTT); assay type: cell-based; conditions: normal human bronchial cells, HRV-10 at m.o.i. 10, 3-4 days at 34° C., read-out: ED50 (the source's name)
Description: Normal human bronchial cells were obtained from cadavers and cultured. The cells were plated at 2×10^4 per well in a […] plate. They were allowed to adhere and grow for 24 hours in 200 μL of serum-free bronchial/tracheal epithelial cell growth medium at 37° C. with 5% CO2. Human Rhinovirus-serotype 10 (HRV-10) was purchased from American Type Culture Collection (ATCC). To start the assay, the supernatant was removed, and HRV-10 at an m.o.i. of 10 (virus particles/cell) was added to each well along with the appropriate amount of compound of formula I or II. The plate was then incubated at 34° C. After 3 hours the supernatant was removed, and 200 μL of media was added along with the same concentration of compound as used in the beginning of the assay. The plates were incubated for 3-4 days at 34° C. To determine the amount of cell growth, an MTT assay (0.5 mgs/mL), as described in Mosmann, T. J. J. Immunol. Methods 1983, 65, 55-63, which is incorporated herein by reference, was performed on the cells, and the plate was read at an optical density of 540 nm. The compounds were tested against control compound Pirodavir, obtained from Janssen Pharmaceuticals. The EC50 was measured as described above for the HI-HeLa Cell Culture Assay.

[2] = target: T1, Recombinant Rhinovirus 3C protease (RVP) serotype-14 (Human rhinovirus 14, UniProt P03303); experiment: Inhibition of Rhinovirus Protease (fluorescence resonance energy transfer assay), serotype 14; assay type: biochemical, human rhinovirus (HRV); conditions: for kobs/I: progress curves in enzyme start experiments; for kinact/KI: pH 7.6, read-out: kobs/I
T1 construct: Recombinant Rhinovirus 3C proteases from serotypes 14, 16, 2 or 89; made in house
T1 sequence (P03303 1538-1719): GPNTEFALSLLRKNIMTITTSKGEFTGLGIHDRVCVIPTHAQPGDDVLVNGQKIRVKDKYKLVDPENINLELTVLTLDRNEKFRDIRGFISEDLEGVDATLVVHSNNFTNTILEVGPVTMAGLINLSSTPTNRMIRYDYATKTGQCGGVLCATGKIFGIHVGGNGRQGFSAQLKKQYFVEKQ

HI-HeLa cells [3] = experiment: Cytotoxicity in mock-infected HI-HeLa cells (antirhinoviral assay, XTT); assay type: cell-based
CVB-3 = experiment: Anticoxsackieviral HI-HeLa Cell Culture Assay (XTT dye reduction); assay type: cell-based, Coxsackie strain B-3 (CVB-3); conditions: HI-HeLa cells infected with CVB-3, m.o.i. 0.08, one day
Description: (§1) Specifically, HI-HeLa cells were infected wtih […] at a multiplicity of infection (m.o.i.) of 0.08 or mock-infected with medium only. Infected or mock-infected cells were resuspended at 8×10^5 cells per mL and incubated with appropriate concentrations of compound. One day later, XTT/PMS were added to test plates and the amount of formazan produced was quantified spectrophotometrically at 450/650 nm. […] The therapeutic index (TI) was calculated by dividing the CC50 by the EC50.
(§2) The Coxsackie strain B-3 (CVB-3) was purchased from American Type Culture Collection (ATCC). Virus stocks were propgated and antiviral assays were performed in Hi-HeLa cells (ATCC). Cells were grown in Minimal Essential Medium with 10% fetal bovine serum.

HI-HeLa cells [4] = experiment: Cytotoxicity in mock-infected HI-HeLa cells (anticoxsackieviral assay, XTT); assay type: cell-based
Description: as §1, with “The ability of compounds to protect calls against CVB-3 infection was measured by the XTT dye reduction method, which is described in Weislow, O. S., R. Kiser, D. L. Fine, J. Bader, R. H. Shoemaker, and M. R. Boyd, 1989, J. Natl. Cancer Inst. 81:577-586, which is incorporated herein by reference. Specifically,” for “Specifically,”
as §2

[5] = Cytotoxicity in mock-infected HI-HeLa cells (antirhinoviral assay, XTT); assay type: cell-based; conditions: human; mock-infected HI-HeLa cells; two days; XTT; read-out: CC50
[6] = Cytotoxicity in mock-infected HI-HeLa cells (anticoxsackieviral assay, XTT); assay type: cell-based; conditions: human; mock-infected HI-HeLa cells; one day; XTT
Description: as §1, with “The ability of compounds to protect calls against CVB-3 infection was measured by the XTT dye reduction method, which is described in Weislow, O. S., R. Kiser, D. L. Fine, J. Bader, R. H. Shoemaker, and M. R. Boyd, 1989, J. Natl. Cancer Inst. 81:577-586, which is incorporated herein by reference. Specifically,” for “Specifically,”
as §2

[7] = target: T2, Recombinant Rhinovirus 3C protease (RVP) serotype 16 (Human rhinovirus 16, UniProt Q82122); experiment: Inhibition of Rhinovirus Protease (fluorescence resonance energy transfer assay), serotype 16; assay type: biochemical, human rhinovirus (HRV); conditions: pH 7.6; RVP serotype 16; progress curves in enzyme start experiments; read-out: kobs/I
T2 construct: Recombinant Rhinovirus 3C proteases from serotypes 14, 16, 2 or 89; made in house
T2 sequence (Q82122 1511-1693): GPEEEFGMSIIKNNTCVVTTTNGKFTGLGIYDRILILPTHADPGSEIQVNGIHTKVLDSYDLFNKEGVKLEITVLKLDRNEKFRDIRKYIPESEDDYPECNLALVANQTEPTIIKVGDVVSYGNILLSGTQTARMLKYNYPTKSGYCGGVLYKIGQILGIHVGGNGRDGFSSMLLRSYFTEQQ
Description: (§3) Stock solution (50 mM, in DMSO) of various compounds were prepared; dilutions were in the same solvent. Recombinant Rhinovirus 3C proteases from serotypes 14, 16, 2 or 89 were prepared by the following standard chromatographic procedures: (1) ion exchange using Q Sepharose Fast Flow from Pharmacia; (2) affinity chromatography using Affi-Gel Blue from Biorad; and (3) sizing using Sephadex G-100 from Pharmacia. Assays contained 2% DMSO, 50 mM tris pH 7.6, 1 mM EDTA, a compound at the indicated concentrations, approximately 1 μM substrate, and 50-100 nM protease. […] The kobs/I values were obtained from reactions initiated by addition of enzyme rather than substrate. RVP activity is measured in the fluorescence resonance energy transfer assay. The substrate was (N-terminal) DABCYL-([…]Gyl)-EDANS. In the uncleaved peptide, the EDANS fluorescence was quenched by the proximal DABCYL moeity. When the peptide was cleaved, the quenching was relieved, and activity was measured as an increase in fluorescence signal.
(§4) In the above table, all data is RVP serotype-14 unless otherwise noted in parentheses. All strains of human rhinovirus (HRV) were purchased from American Type Culture Collection (ATCC), except for serotype 14, which was produced from the infectious cDNA clone constructed and supplied to us by Dr. Roland Rueckert at the Institute for Molecular Virology, University of Wisconsin, Madison, Wisc. […] The data in the column designated kobs/I was measured from progress curves in enzyme start experiments.

[8] = target: T3, Recombinant Rhinovirus 3C protease (RVP) serotype 2 (Human rhinovirus 2, UniProt P04936); experiment: Inhibition of Rhinovirus Protease (fluorescence resonance energy transfer assay), serotype 2; assay type: biochemical, human rhinovirus (HRV); conditions: pH 7.6, progress curves in enzyme start experiments, read-out: kobs/I
T3 construct: Recombinant Rhinovirus 3C proteases from serotypes 14, 16, 2 or 89; made in house
T3 sequence (P04936 1508-1690): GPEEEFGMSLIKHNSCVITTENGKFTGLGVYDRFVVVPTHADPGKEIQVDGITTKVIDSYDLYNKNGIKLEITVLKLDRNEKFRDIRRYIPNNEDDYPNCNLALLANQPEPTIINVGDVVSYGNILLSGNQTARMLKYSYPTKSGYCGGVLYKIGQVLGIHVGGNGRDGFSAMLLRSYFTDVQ
Description: as §3, §4

[9] = HI-HeLa cells infected with HRV-14, m.o.i. 0.13, two days, XTT, read-out: EC50
[10] = mock-infected HI-HeLa cells, one day, XTT, read-out: CC50
[11] = RVP serotype-14, 10 minute preincubation, substrate start, read-out: INHIB (Ki)
[12] = Rhinovirus B, HRV14, 48 h, HI-HeLa cells infected with HRV-14, m.o.i. 0.13, two days, XTT, read-out: EC50
[13] = mock-infected HI-HeLa cells, two days, XTT, read-out: CC50

| Compound | EC50 (HRV-14; [9]) [µM] | kobs/I ([2]; RVP serotype-14) | EC50 (CVB-3) [µM] | CC50 (HI-HeLa cells [4]; [10]) [µM] | EC50 (HRV-14; [12]) [µM] | Ki [2] [µM] | kinact/KI [2] [M⁻¹ s⁻¹] | CC50 at 2 days [5] [µM] | kinact/KI [7] [M⁻¹ s⁻¹] | kinact/KI [8] [M⁻¹ s⁻¹] | other results |
| --- | --- | --- | --- | --- | --- | --- | --- | --- | --- | --- | --- |
| CCOC(=O)/C=C/[C@H](CNC(C)=O)NC(=O)[C@H](Cc1ccccc1)NC(=O)[C@H](CC(C)C)NC(=O)OCc1ccccc1 [Compound 4, Ethyl-3-[CBZ-L-Leu-L-Phe-L-(N-Ac-amino)-Ala]-E-Propenoate] | 2.2 | 790 M⁻¹ s⁻¹ | – | – | – | – | – | – | – | – | EC50 [1]: 0.15 µM; INHIB (percent inhibition) ([2]; RVP serotype-14, 0.5 μM compound, 10 minute preincubation with 50 nM RVP): 49(0.5) percent; CC50 (HI-HeLa cells [3]): > 320 µM |
| COC(=O)/C=C/[C@H](CCC(N)=O)NC(=O)[C@H](Cc1ccccc1)NC(=O)[C@H](CC(C)C)NC(=O)OCc1ccccc1 [Compound 11, Methyl-3-(CBZ-L-Leu-L-Phe-L-Gln)-E-Propenoate] | 1.3 | 20,000 M-1 sec-1 | 8.9 | > 320 | – | – | – | – | – | – | EC50 [1]: 0.0007 µM; Ki [2, 11]: 28 µM; CC50 (HI-HeLa cells [3]): > 320 µM |
| CCOC(=O)/C=C/[C@H](CC[S+](C)[O-])NC(=O)[C@H](Cc1ccccc1)NC(=O)[C@H](CC(C)C)NC(=O)OCc1ccccc1 (stereo partly drawn) [Compound 12, Ethyl-3-[CBZ-L-Leu-L-Phe-L-Met(sulfoxide)]-E-propenoate] | – | – | – | – | 1.6 | 4.3 | 2200 | > 100 | – | – | EC50 ([1]; Epithelial cell): 0.004 µM |
| CC(C)C[C@H](NC(=O)OCc1ccccc1)C(=O)N[C@@H](Cc1ccccc1)C(=O)N[C@H](/C=C/C(=O)N1CCCC1)CCC(N)=O [Compound 21, 1-Pyrrolidin-1-yl-3-(CBZ-L-Leu-L-Phe-L-Gln)-E-Propenone] | – | – | – | – | 22.4 | 9.9 | 2100 | > 100 | – | – | EC50 (CVB-3; 24 h): 158 µM; CC50 at 1 day [6]: > 320 µM |
| CC(C)C[C@H](NC(=O)OCc1ccccc1)C(=O)N[C@@H](Cc1ccccc1)C(=O)N[C@H](/C=C/c1ccccn1)CCC(N)=O [Compound 23] | > 100 | 120 M⁻¹ s⁻¹ | > 100 | > 100 | – | – | – | – | – | – | Ki [2, 11]: 177 µM; CC50 (HI-HeLa cells [3]; [13]): > 100 µM |
| CC(C)C[C@H](NC(=O)OCc1ccccc1)C(=O)N[C@@H](Cc1ccccc1)C(=O)N[C@H](/C=C/C(=O)c1ccccc1)CCC(N)=O [Compound 24, 1-Phenyl-3-(CBZ-L-Leu-L-Phe-L-Gln)-E-Propenone] | 4 | 500,000 M-1 sec-1 | 10 | 10 | – | – | – | – | – | – | CC50 (HI-HeLa cells [3]; [13]): 16 µM |
| CCOC(=O)/C=C/[C@H](CCC(N)=O)NC(=O)[C@H](Cc1ccc(F)cc1)NC(=O)c1cc2c(OC)cccc2[nH]1 [Compound 27] | 3.5 | 3,000 M-1 sec-1 | 20 | 103 | – | – | – | – | – | – | EC50 [1]: 0.07 µM; Ki [2, 11]: 20 µM; CC50 (HI-HeLa cells [3]; [13]): 160 µM |
| CC(C)C[C@H](NC(=O)OCc1ccccc1)C(=O)N[C@@H](Cc1ccccc1)C(=O)N[C@H](/C=C/C(=O)N1CC=CC1)CCC(N)=O [Compound 41] | 56 | 8,464 M-1 sec-1 | > 100 | – | – | – | – | – | – | – | CC50 (HI-HeLa cells [4]): > 100 µM; CC50 (HI-HeLa cells [3]): 56 µM |
| CC(C)C[C@H](NC(=O)OCc1ccccc1)C(=O)N[C@@H](Cc1ccccc1)C(=O)N[C@H](/C=C/C(=O)N1CCc2ccccc21)CCC(N)=O [Compound 85] | – | – | – | – | 16 | 3 | 6500 | > 320 | – | – | EC50 ([1]; Epithelial cell): 0.005 µM |
| CCOC(=O)/C=C/[C@H](CCC(N)=O)NC(=O)[C@H](Cc1ccccc1)NC(=O)[C@H](CSc1ccccc1)NC(=O)OCc1ccccc1 [Compound 153] | – | – | – | – | 0.12 | 1.4 | 141000 | > 320 | 30600 | 13400 | – |
| CCOC(=O)/C=C/[C@H](CCC(N)=O)NC(=O)[C@H](Cc1ccccc1)NC(=O)[C@H](CCC(=O)O)NC(=O)OCc1ccccc1 [Compound 154] | – | – | – | – | 5.5 | 1.1 | 78900 | > 320 | 13900 | 5400 | – |
| CCOC(=O)C=CC(CCC(N)=O)NC(=O)C(Cc1ccc(C)cc1)NC(=O)C(CC(C)C)NC(=O)OCc1ccccc1 (centres unmarked) [Compound 155] | – | – | – | – | – | – | 59400 | > 320 | 5250 | 1390 | EC50 (HRV-14; Rhinovirus B, HRV14, 48 h): 0.18 µM |
| CCOC(=O)/C=C/[C@H](CCC(N)=O)NC(=O)[C@H](Cc1ccccc1)NC(=O)[C@H](Cc1ccccc1)NC(=O)OCc1ccccc1 [Compound 157] | – | – | – | – | 0.56 | 6 | 162000 | > 320 | 30800 | 9700 | – |
| CCOC(=O)/C=C/[C@H](CCC(N)=O)NC(=O)[C@H](Cc1ccccc1)NC(=O)[C@H](CC(=O)O)NC(=O)OCc1ccccc1 [Compound 159] | – | – | – | – | 2.4 | 0.5 | 35000 | > 320 | 6500 | 2500 | – |
| Cc1cc(CCCCCOc2c(Cl)cc(C3=NCCO3)cc2Cl)on1 [WIN 54954, reference compound] | 2.13 | – | > 100 | > 100 | – | – | – | – | – | – | CC50 (HI-HeLa cells [3]; [13]): > 63 µM |
| Ethyl-3-[CBZ-L-Leu-L-Phe-L-[N-(2-pyrrolidinone)]-Ala]-E-Propenoate [Compound 5] | 1.6 | 221 M⁻¹ s⁻¹ | – | – | – | – | – | – | – | – | EC50 [1]: 0.001 µM; Ki [2, 11]: 7.1 µM; CC50 (HI-HeLa cells [3]): 251 µM |
